Toxic doses and inconclusive results are not listed. Cut-off read from the data, not from the text of the source: active = T/C of 150% or more; inactive = T/C below 125%.
Test system: L1210 leukemia ip in BDF1 mice, survival T/C
Assay: NCI In Vivo Anticancer Drug Screen. Data for tumor model L1210 Leukemia (intraperitoneal) in B6D2F1 (BDF1) mice
Details: endpoint: mean survival time, higher = longer survival
Method in brief: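 Read-out is survival time, reported as the treated-group measurement over the vehicle-control measurement.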

[1] = dose: 100.0 mg/kg/injection, schedule: Q01DX001 (ip), vehicle: Klucel (hydroxypropylcellulose) (HPC)
[2] = dose: 400.0 mg/kg/injection, schedule: Q01DX001 (ip), vehicle: Klucel (hydroxypropylcellulose) (HPC)

Measured: T/C

CS(=O)c1ccc(/C=C2/C=Cc3ccccc32)cc1 (stereo not given)
inactive: dose: 100.0 mg/kg/injection, schedule: Q01DX009 (ip), vehicle: Klucel (hydroxypropylcellulose) (HPC) 91 % of control | dose: 200.0 mg/kg/injection, schedule: Q01DX009 (ip), vehicle: Klucel (hydroxypropylcellulose) (HPC) 103 % of control | dose: 400.0 mg/kg/injection, schedule: Q01DX009 (ip), vehicle: Klucel (hydroxypropylcellulose) (HPC) 101 % of control

CCCCn1c(C)nc2c([N+](=O)[O-])cc(C(F)(F)F)cc21
inactive: [1] 104 % of control | [2] 98 % of control

CCCCCCCCCCCCCCn1cnc2ncnc(Cl)c21
inactive: dose: 12.5 mg/kg/injection, schedule: Q01DX005 (ip), vehicle: other 104 % of control | dose: 25.0 mg/kg/injection, schedule: Q01DX005 (ip), vehicle: other 104 % of control | dose: 50.0 mg/kg/injection, schedule: Q01DX005 (ip), vehicle: other 103 % of control | dose: 100.0 mg/kg/injection, schedule: Q01DX005 (ip), vehicle: other 101 % of control | dose: 200.0 mg/kg/injection, schedule: Q01DX005 (ip), vehicle: other 96 % of control

Nc1cccc(CC(=O)Nc2ccccc2)c1
inactive: dose: 100.0 mg/kg/injection, schedule: Q01DX009 (ip), vehicle: alcohol 93 % of control | dose: 100.0 mg/kg/injection, schedule: Q04DX003 (ip), vehicle: alcohol 97 % of control | dose: 200.0 mg/kg/injection, schedule: Q01DX009 (ip), vehicle: alcohol 105 % of control | dose: 200.0 mg/kg/injection, schedule: Q04DX003 (ip), vehicle: alcohol 100 % of control | dose: 400.0 mg/kg/injection, schedule: Q01DX009 (ip), vehicle: alcohol 103 % of control | dose: 400.0 mg/kg/injection, schedule: Q04DX003 (ip), vehicle: alcohol 100 % of control

C[CH2][Ge]([CH2]C)[CH2]C.C[CH2][Ge]([CH2]C)[CH2]C.C[CH2][Ge]([CH2]C)[O][Ge]([CH2]C)[CH2]C
inactive: dose: 100.0 mg/kg/injection, schedule: Q04DX002 (ip), vehicle: saline with Tween-80 106 % of control | dose: 200.0 mg/kg/injection, schedule: Q04DX002 (ip), vehicle: saline with Tween-80 106 % of control | dose: 400.0 mg/kg/injection, schedule: Q04DX002 (ip), vehicle: saline with Tween-80 116 % of control

Oc1cccc2c1ccc1ccc3ccccc3c12
inactive: dose: 100.0 mg/kg/injection, schedule: Q04DX003 (ip), vehicle: saline with Tween-80 92 % of control | dose: 200.0 mg/kg/injection, schedule: Q04DX003 (ip), vehicle: saline with Tween-80 95 % of control | dose: 400.0 mg/kg/injection, schedule: Q04DX003 (ip), vehicle: saline with Tween-80 90 % of control

COC(=O)c1cc(C)cc(NS(=O)(=O)c2ccc(C)cc2)c1C
inactive: dose: 50.0 mg/kg/injection, schedule: Q01DX001 (ip), vehicle: carboxymethylcellulose (CMC) 89 % of control | dose: 100.0 mg/kg/injection, schedule: Q01DX001 (ip), vehicle: carboxymethylcellulose (CMC) 86 % of control | dose: 200.0 mg/kg/injection, schedule: Q01DX001 (ip), vehicle: carboxymethylcellulose (CMC) 94 % of control | dose: 400.0 mg/kg/injection, schedule: Q01DX001 (ip), vehicle: carboxymethylcellulose (CMC) 89 % of control

CCCCCC(=O)NCC(=O)N1CCC(C(=O)NCCCCC(=O)OC)C1 (stereo not given)
inactive: dose: 100.0 mg/kg/injection, schedule: Q04DX003 (ip), vehicle: saline 97 % of control | dose: 200.0 mg/kg/injection, schedule: Q04DX003 (ip), vehicle: saline 94 % of control | dose: 400.0 mg/kg/injection, schedule: Q04DX003 (ip), vehicle: saline 86 % of control

COC1=NS(=O)(=O)N=C(N(C)C)O1
inactive: [1] 105 % of control | dose: 100.0 mg/kg/injection, schedule: Q04DX003 (ip), vehicle: Klucel (hydroxypropylcellulose) (HPC) 96 % of control | dose: 200.0 mg/kg/injection, schedule: Q01DX001 (ip), vehicle: Klucel (hydroxypropylcellulose) (HPC) 105 % of control | dose: 200.0 mg/kg/injection, schedule: Q04DX003 (ip), vehicle: Klucel (hydroxypropylcellulose) (HPC) 96 % of control | [2] 103 % of control | dose: 400.0 mg/kg/injection, schedule: Q04DX003 (ip), vehicle: Klucel (hydroxypropylcellulose) (HPC) 97 % of control

Reference: PubChem BioAssay AID248 (DTP/NCI, 2004)
